Measured values taken from patent US9529005B2, “Modulating bacterial MAM polypeptides in pathogenic disease” (priority 2011, dated 2016).
Converted amounts (≈) assume the structure as drawn. Where two headings read alike, the source gives them in different places.

Tests used:
Experiment in all cases: Antimicrobial susceptibility testing (MIC), BD Phoenix Automated Microbiology System; for interpretation of the result: key: R, resistant; I, intermediate; S, susceptible; R*: *As a rule, when ESBL is detected, an interpretation of susceptible or intermediate for penicillins, cephalosporins and aztreonam is reported as resistant
Assay type in all cases: cell-based
Acinetobacter baumannii = settings: for MIC: Acinetobacter baumannii
From the text: (§1) The inventors performed antimicrobial susceptibility testing (AST) by determining the minimal inhibiting concentration (MIC) of a panel of antimicrobials on all twenty bacterial isolates using the BD Phoenix Automated Microbiology System (Table 3). Antimicrobial panels included several drugs from each of the four most commonly used classes of antimicrobials, aminoglycosides, β-lactams, carbapenems and fluoroquinolones. The panels also included antimicrobials from other classes, such as trimethoprim/sulfamethoxazole, but resistance to these was not considered in the classification of isolates as multidrug-resistant.

Escherichia coli = settings: for MIC: Escherichia coli
From the text: as §1

Klebsiella ssp. = settings: for MIC: Klebsiella
From the text: as §1

Pseudomonas aeruginosa = settings: for MIC: Pseudomonas aeruginosa
From the text: as §1

[1] = Acinetobacter baumannii isolate 1
[2] = Acinetobacter baumannii isolate 2
[3] = Acinetobacter baumannii isolate 3
[4] = Acinetobacter baumannii isolate 4
[5] = Acinetobacter baumannii isolate 5
[6] = read-out: minimal inhibiting concentration, Acinetobacter baumannii isolate 1
[7] = read-out: minimal inhibiting concentration, Acinetobacter baumannii isolate 2
[8] = read-out: minimal inhibiting concentration, Acinetobacter baumannii isolate 3
[9] = read-out: minimal inhibiting concentration, Acinetobacter baumannii isolate 4
[10] = read-out: minimal inhibiting concentration, Acinetobacter baumannii isolate 5
[11] = read-out: minimal inhibiting concentration, Escherichia coli isolate 1
[12] = read-out: minimal inhibiting concentration, Escherichia coli isolate 2
[13] = read-out: minimal inhibiting concentration, Escherichia coli isolate 3
[14] = read-out: minimal inhibiting concentration, Escherichia coli isolate 4
[15] = read-out: minimal inhibiting concentration, Escherichia coli isolate 5
[16] = read-out: minimal inhibiting concentration, Klebsiella ssp. isolate 1
[17] = read-out: minimal inhibiting concentration, Klebsiella ssp. isolate 2
[18] = read-out: minimal inhibiting concentration, Klebsiella ssp. isolate 3
[19] = read-out: minimal inhibiting concentration, Klebsiella ssp. isolate 4
[20] = read-out: minimal inhibiting concentration, Klebsiella ssp. isolate 5
[21] = Pseudomonas aeruginosa isolate 1
[22] = Pseudomonas aeruginosa isolate 2
[23] = Pseudomonas aeruginosa isolate 3
[24] = Pseudomonas aeruginosa isolate 4
[25] = Pseudomonas aeruginosa isolate 5
[26] = read-out: minimal inhibiting concentration, Pseudomonas aeruginosa isolate 1
[27] = read-out: minimal inhibiting concentration, Pseudomonas aeruginosa isolate 2
[28] = read-out: minimal inhibiting concentration, Pseudomonas aeruginosa isolate 3
[29] = read-out: minimal inhibiting concentration, Pseudomonas aeruginosa isolate 4
[30] = read-out: minimal inhibiting concentration, Pseudomonas aeruginosa isolate 5

## C[C@@H](O)[C@H]1C(=O)N2C(C(=O)O)=C(S[C@@H]3CN[C@H](C(=O)N(C)C)C3)[C@H](C)[C@H]12 [Mero., Meropenem]
Acinetobacter baumannii; [1]
  interpretation of the result: S
Acinetobacter baumannii; [2]
  interpretation of the result: R
Acinetobacter baumannii; [3]
  interpretation of the result: R
Acinetobacter baumannii; [4]
  interpretation of the result: S
Acinetobacter baumannii; [5]
  interpretation of the result: R
Acinetobacter baumannii; [6]
  MIC: 2 µg/mL (≈ 5.22 µM)
Acinetobacter baumannii; [7]
  MIC: > 8 µg/mL
Acinetobacter baumannii; [8]
  MIC: > 8 µg/mL
Acinetobacter baumannii; [9]
  MIC: ≤ 1 µg/mL
Acinetobacter baumannii; [10]
  MIC: > 8 µg/mL
Escherichia coli; Escherichia coli isolate 1
  interpretation of the result: S
Escherichia coli; Escherichia coli isolate 2
  interpretation of the result: S
Escherichia coli; Escherichia coli isolate 3
  interpretation of the result: S
Escherichia coli; Escherichia coli isolate 4
  interpretation of the result: S
Escherichia coli; Escherichia coli isolate 5
  interpretation of the result: S
Escherichia coli; [11]
  MIC: ≤ 1 µg/mL
Escherichia coli; [12]
  MIC: ≤ 1 µg/mL
Escherichia coli; [13]
  MIC: ≤ 1 µg/mL
Escherichia coli; [14]
  MIC: ≤ 1 µg/mL
Escherichia coli; [15]
  MIC: ≤ 1 µg/mL
Escherichia coli; all E. coli isolates
  susceptibility of isolates: susceptible
Klebsiella ssp.; Klebsiella ssp. isolate 1
  interpretation of the result: S
Klebsiella ssp.; Klebsiella ssp. isolate 2
  interpretation of the result: S
Klebsiella ssp.; Klebsiella ssp. isolate 3
  interpretation of the result: S
Klebsiella ssp.; Klebsiella ssp. isolate 4
  interpretation of the result: S
Klebsiella ssp.; Klebsiella ssp. isolate 5
  interpretation of the result: S
Klebsiella ssp.; [16]
  MIC: ≤ 1 µg/mL
Klebsiella ssp.; [17]
  MIC: ≤ 1 µg/mL
Klebsiella ssp.; [18]
  MIC: ≤ 1 µg/mL
Klebsiella ssp.; [19]
  MIC: ≤ 1 µg/mL
Klebsiella ssp.; [20]
  MIC: ≤ 1 µg/mL
Klebsiella ssp.; all Klebsiella ssp. isolates
  susceptibility of isolates: susceptible
Pseudomonas aeruginosa; [21]
  interpretation of the result: S
Pseudomonas aeruginosa; [22]
  interpretation of the result: R
Pseudomonas aeruginosa; [23]
  interpretation of the result: R
Pseudomonas aeruginosa; [24]
  interpretation of the result: R
Pseudomonas aeruginosa; [25]
  interpretation of the result: S
Pseudomonas aeruginosa; [26]
  MIC: 4 µg/mL (≈ 10.4 µM)
Pseudomonas aeruginosa; [27]
  MIC: > 8 µg/mL
Pseudomonas aeruginosa; [28]
  MIC: > 8 µg/mL
Pseudomonas aeruginosa; [29]
  MIC: > 8 µg/mL
Pseudomonas aeruginosa; [30]
  MIC: 4 µg/mL (≈ 10.4 µM)

## NC[C@H]1O[C@H](O[C@H]2[C@H](O)[C@@H](O[C@H]3O[C@H](CO)[C@@H](O)[C@H](N)[C@H]3O)[C@H](N)C[C@@H]2N)[C@H](N)C[C@@H]1O [Tob., Tobramycin]
Acinetobacter baumannii; [1]
  interpretation of the result: I
Acinetobacter baumannii; [2]
  interpretation of the result: R
Acinetobacter baumannii; [3]
  interpretation of the result: R
Acinetobacter baumannii; [4]
  interpretation of the result: R
Acinetobacter baumannii; [5]
  interpretation of the result: S
Acinetobacter baumannii; [6]
  MIC: 8 µg/mL (≈ 17.1 µM)
Acinetobacter baumannii; [7]
  MIC: > 8 µg/mL
Acinetobacter baumannii; [8]
  MIC: > 8 µg/mL
Acinetobacter baumannii; [9]
  MIC: > 8 µg/mL
Acinetobacter baumannii; [10]
  MIC: 4 µg/mL (≈ 8.56 µM)
Escherichia coli; Escherichia coli isolate 1
  interpretation of the result: R
Escherichia coli; Escherichia coli isolate 2
  interpretation of the result: R
Escherichia coli; Escherichia coli isolate 3
  interpretation of the result: R
Escherichia coli; Escherichia coli isolate 4
  interpretation of the result: S
Escherichia coli; Escherichia coli isolate 5
  interpretation of the result: R
Escherichia coli; [11]
  MIC: > 8 µg/mL
Escherichia coli; [12]
  MIC: > 8 µg/mL
Escherichia coli; [13]
  MIC: > 8 µg/mL
Escherichia coli; [14]
  MIC: ≤ 2 µg/mL
Escherichia coli; [15]
  MIC: > 8 µg/mL
Klebsiella ssp.; Klebsiella ssp. isolate 1
  interpretation of the result: I
Klebsiella ssp.; Klebsiella ssp. isolate 2
  interpretation of the result: R
Klebsiella ssp.; Klebsiella ssp. isolate 3
  interpretation of the result: I
Klebsiella ssp.; Klebsiella ssp. isolate 4
  interpretation of the result: I
Klebsiella ssp.; Klebsiella ssp. isolate 5
  interpretation of the result: R
Klebsiella ssp.; [16]
  MIC: 8 µg/mL (≈ 17.1 µM)
Klebsiella ssp.; [17]
  MIC: > 8 µg/mL
Klebsiella ssp.; [18]
  MIC: 8 µg/mL (≈ 17.1 µM)
Klebsiella ssp.; [19]
  MIC: 8 µg/mL (≈ 17.1 µM)
Klebsiella ssp.; [20]
  MIC: > 8 µg/mL
Pseudomonas aeruginosa; [21]
  interpretation of the result: S
Pseudomonas aeruginosa; [22]
  interpretation of the result: R
Pseudomonas aeruginosa; [23]
  interpretation of the result: S
Pseudomonas aeruginosa; [24]
  interpretation of the result: R
Pseudomonas aeruginosa; [25]
  interpretation of the result: R
Pseudomonas aeruginosa; [26]
  MIC: ≤ 2 µg/mL
Pseudomonas aeruginosa; [27]
  MIC: > 8 µg/mL
Pseudomonas aeruginosa; [28]
  MIC: ≤ 2 µg/mL
Pseudomonas aeruginosa; [29]
  MIC: > 8 µg/mL
Pseudomonas aeruginosa; [30]
  MIC: > 8 µg/mL
